Experimental findings from ChEMBL document CHEMBL1130925, “Anti-AIDS agents. 33. Synthesis and anti-HIV activity of mono-methyl substituted 3',4'-di-O-(-)-camphanoyl-(+)-cis-khellactone (DCK) analogues” (Bioorg Med Chem Lett, 1998) are described below.

Usually EC50 stands for the midpoint of the concentration-response curve. Low readings indicate a more potent agent, high ones a less potent agent. One may read the IC50 as the concentration that gives 50% inhibition. High values mean weaker potency in that assay, low ones greater potency in that assay.

Series [1] can be described thus: Compound was tested for anti HIV activity by measuring therapeutic index in H9 lymphocytes; IC50/EC50. It counts as organism-based. The note with it: human immunodeficiency virus, H9 lymphocytes infected with HIV; read-out: TI.
Series [2] deals with H9. The series can be described thus: Compound was evaluated for anti-HIV activity in acutely infected H9 Lymphocytes. It counts as functional, cell-based. The note with it: Homo sapiens.
Series [3] concerns H9. The series can be described thus: Compound was evaluated for anti-HIV activity and the concentration that inhibits uninfected H9 cell growth by 50%. It counts as functional, cell-based. The note with it: Homo sapiens.

Each structure is given as a SMILES string. A value given as a limit tells only on which side of the number the result lay.

Take `CC1(C)Oc2ccc3ccc(=O)oc3c2[C@@H](OC(=O)C23CCC(C)(C(=O)O2)C3(C)C)[C@H]1OC(=O)C12CCC(C)(C(=O)O1)C2(C)C` (stereo not given in full): in series [1], the selectivity ratio amounted to 137000.
In turn, `Cc1cc2ccc3c(c2oc1=O)[C@@H](OC(=O)C12CCC(C)(C(=O)O1)C2(C)C)[C@@H](OC(=O)C12CCC(C)(C(=O)O1)C2(C)C)C(C)(C)O3` (stereo not given in full) displayed an EC50 with H9 [2] of 0.000157 nM. The molecule also showed an IC50 with H9 [3] of more than 157000 nM.
Consider `Cc1cc2ccc(=O)oc2c2c1OC(C)(C)[C@H](OC(=O)C13CCC(C)(C(=O)O1)C3(C)C)[C@@H]2OC(=O)C12CCC(C)(C(=O)O1)C2(C)C` (stereo not given in full), for which the selectivity ratio in series [1] was 220. In the series with H9 [2], this molecule registered an EC50 of 150 nM. Besides, in the series on H9 [3], inhibition was half-maximal at 33000 nM (IC50).
With `Cc1cc2c(c3oc(=O)ccc13)[C@@H](OC(=O)C13CCC(C)(C(=O)O1)C3(C)C)[C@@H](OC(=O)C13CCC(C)(C(=O)O1)C3(C)C)C(C)(C)O2` (stereo not given in full), the EC50 in the series on H9 [2] stood at 0.000423 nM. Besides, the IC50 in the series on H9 [3] is more than 157000 nM.
Consider `Cc1cc(=O)oc2c3c(ccc12)OC(C)(C)[C@H](OC(=O)C12CCC(C)(C(=O)O1)C2(C)C)[C@@H]3OC(=O)C12CCC(C)(C(=O)O1)C2(C)C` (stereo not given in full), for which the EC50 in the series with H9 [2] turned out to be 0.000157 nM. This molecule returned an IC50 in the series on H9 [3] of more than 157000 nM.
